Measured values published in patent publication US10800816B2 (Baxalta GmbH, priority 2012, dated 2020).
Converted amounts (≈) assume the structure as drawn.

Tests used:
[1] = test system: C57Bl/6NCrl mice; assay: Nail clip bleeding study in mice; type: in vivo, mouse
[2] = test system: FVIII-inhibited whole blood; assay: Rotation thromboelastography (ROTEM) in whole blood; parameters: species or system human; conditions: Hem A / FVIII-inhibited human whole blood
Protocol: Continuous visco-elastic assessment of human whole blood clot formation and firmness was performed by rotation thromboelastography with whole blood preparations in the presence or absence of peptides. […] Test samples were prepared by dissolving quantities of peptides in either DMSO or HEPES buffered saline (with or without 0.1% Tween 80).
Recordings were made using a ROTEM thromboelastography coagulation analyzer (Pentapharm, Munich, Germany) at 37° C. Briefly, blood is added into a disposable cuvette in a heated cuvette holder. A disposable pin (sensor) is fixed on the tip of a rotating axis. The axis is guided by a high precision ball bearing system and rotates back and forth. The axis is connected with a spring for the measurement of elasticity. The exact position of the axis is detected by the reflection of light on a small mirror on the axis. The loss of elasticity when the sample clots leads to a change in the rotation of the axis. The data obtained are computer analyzed and visualized in a thromboelastogram. […] An elasticity of approximately zero is observed before clot formation begins. Mirror image traces above and below the zero line indicate the effect of clot formation on the rotation of the axis.
The analytical set-up was as follows: to 20 μL of test sample or control, 300 μL of pre-warmed (37° C.) CTI treated citrated whole blood was added, followed by 20 μL of a 1:15 dilution of TF PRP reagent containing recombinant human tissue factor (rTF, 3 pM) (TS40, Thrombinoscope BV, Maastricht, The Netherlands). Coagulation was initiated by the addition of 20 μ200 mM CaCl2 (star-TEM®, Pentapharm, Munich, Germany) and recordings were allowed to proceed for at least 120 min. The final concentration of rTF in the assay was 11 or 44 fM.
The thromboelastographic parameters of clotting time (CT), clot formation time (CFT) and maximum clot firmness (MCF) were recorded in accordance with the manufacturer's instructions. CT is defined as the time from the start of measurement to the start of clot formation. CFT is defined as the time from the start of clot formation until an amplitude of 20 mm is reached. MCF is the maximum difference in amplitude between the two traces during the assay. The first derivative of the data of the thromboelastogram are plotted to obtain a graph of velocity (mm/s) against time (s). From this graph, the maximum velocity (maxV) is determined. The time at which the maximum velocity is obtained (maxV-t) is also determined.
This example describes a method for assessing clot formation in whole blood using rotation thromboelastography (ROTEM). The assay was performed as described in Example 8. The analytical set-up was as follows: 300 μL of pre-warmed (37° C.) CTI treated citrated whole blood was added to a peptide sample (10, 100, 1000 nM final assay concentration) or a control, followed by addition of a 1:15 dilution of TF PRP reagent containing recombinant human tissue factor (rTF, 3 pM) (TS40, Thrombinoscope BV, Maastricht, The Netherlands). In certain experiments, exogenous full length TFPI (flTFPI) at final concentrations of 2 or 10 nM was added to simulate flTFPI plasma levels of up to 50-fold over normal. Coagulation was initiated by the addition of 20 μL 200 mM CaCl2 (star-TEM®, Pentapharm, Munich, Germany) and recordings were allowed to proceed for at least 120 min. The final concentration of rTF in the assay was 44 fM. The thromboelastographic parameters of clotting time (CT), clot formation time (CFT) and maximum clot firmness (MCF) were recorded in accordance with the manufacturer's instructions. CT is defined as the time from the start of measurement to the start of clot formation. CFT is defined as the time from the start of clot formation until an amplitude of 20 mm is reached. MCF is the maximum difference in amplitude between the two traces during the assay.

[3] = test system: FIX knock-out mice; assay: Tail-tip bleed model in FIX knock-out mice; type: in vivo, mouse; conditions: 1 mg/kg JBT2329 alone
Protocol: JBT2329 also was tested in a FIX knock-out tail-tip bleed mouse model, which is a clinically-relevant model for hemophilia B human patients. The methodology was substantially similar to that described above with respect to the FVIII knock-out model. Instead of ADVATE, a recombinant FIX (rFIX) served as a reference. Median total blood loss in buffer-treated animals was 935 mg. Median total blood loss in animals treated with a murine anti-TFPI antibody (maTFPI) was 774 mg. Median total blood loss was reduced further when the animals received combined treatment of maTFPI and rFIX.

[4] = Pharmacokinetics in C57Bl6 mice; type: in vivo, mouse
[5] = test system: FVIII-deficient mice; assay: Puncture-induced hemarthrosis in FVIII-deficient mice; type: in vivo, mouse; conditions: 1 mg/kg i.v.
Protocol: After each product administration, the right knee joint capsule was punctured with a 30 gauge needle to induce hemorrhage. Animals were sacrificed three days following injury, and bleeding was assessed via gross and histological methods. […] Summary bleeding scores (SBS), which include visual and histological bleeding scores, were assigned to each joint. […] The results described herein further confirm that peptides of the invention provide a prophylactic or protective effect against bleeding in an in vivo model of hemophilia A.

[6] = molecular target: T1, fl-TFPI / LRP (Homo sapiens, UniProt P10646); assay: BIAcore: fl-TFPI binding to LRP in presence of peptide; conditions: 1 μM peptide, 10 nM fl-TFPI
T1 sequence (P10646 29-304): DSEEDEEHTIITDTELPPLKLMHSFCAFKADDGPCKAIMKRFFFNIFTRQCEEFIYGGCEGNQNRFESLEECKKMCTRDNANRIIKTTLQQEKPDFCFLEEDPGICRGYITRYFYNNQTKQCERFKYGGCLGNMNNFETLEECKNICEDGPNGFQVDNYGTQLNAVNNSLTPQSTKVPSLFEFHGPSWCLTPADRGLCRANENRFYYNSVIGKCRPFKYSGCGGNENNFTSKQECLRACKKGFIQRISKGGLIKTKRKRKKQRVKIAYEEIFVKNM
T1 sequence (Q07954 852-1182 partner limits assumed): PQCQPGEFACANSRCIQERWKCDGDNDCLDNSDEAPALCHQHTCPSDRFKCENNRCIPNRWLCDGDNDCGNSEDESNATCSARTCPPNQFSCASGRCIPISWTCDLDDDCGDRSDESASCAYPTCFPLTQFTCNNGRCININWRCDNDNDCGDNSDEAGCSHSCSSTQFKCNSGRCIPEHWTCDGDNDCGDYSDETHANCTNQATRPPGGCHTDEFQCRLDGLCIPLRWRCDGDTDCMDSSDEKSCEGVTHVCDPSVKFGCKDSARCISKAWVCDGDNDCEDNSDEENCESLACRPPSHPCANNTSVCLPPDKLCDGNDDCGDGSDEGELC

[7] = molecular target: T2, fl-TFPI / ASGPR (Homo sapiens, UniProt P10646); assay: BIAcore: fl-TFPI binding to ASGPR in presence of peptide; conditions: 1 μM peptide
T2 sequence (P10646 29-304): T1 sequence (P10646 29-304)

[8] = mouse, 24 h
[9] = 24 h
[10] = test system: FVIII knock-out mice; conditions: 1 mg/kg without ADVATE
[11] = physchem
[12] = molecular target: T3, human TFPI-1 (Homo sapiens, UniProt P10646); assay: BIAcore surface plasmon resonance, immobilized human TFPI-1; type: binding; conditions: Table 6
T3 construct: human TFPI-1 (residues 29-282 fused at the C-terminus to a 10 His-tag); purchased R&D Systems 2974-PI
T3 sequence (P10646 29-282): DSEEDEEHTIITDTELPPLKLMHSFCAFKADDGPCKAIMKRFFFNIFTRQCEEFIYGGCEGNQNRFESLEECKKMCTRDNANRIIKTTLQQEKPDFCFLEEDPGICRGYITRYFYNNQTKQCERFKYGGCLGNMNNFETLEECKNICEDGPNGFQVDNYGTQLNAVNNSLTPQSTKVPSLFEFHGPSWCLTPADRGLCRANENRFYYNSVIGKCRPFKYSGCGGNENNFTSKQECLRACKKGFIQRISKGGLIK

[13] = test system: TFPI; assay: FXa inhibition assay (human TFPI); conditions: read-out: FXa Inhibition Assay EC50; Table 7 and text b402
[14] = 0.1 mg/kg i.v., first 30 minutes
[15] = 0.1 mg/kg i.v., second 30 minute period

Ac-FQSKpNVHVDGYFERL-Aib-AKLC(PEG)-NH2 [JBT2329] (FQSKPNVHVDGYFERLXAKLC; acetyl, D-Pro, Aib, Cys-PEG 41.5 kD, amide; MOD_RES (1)..(1): N-terminal acetylation; MOD_RES (5)..(5): D-Pro; MOD_RES (17)..(17): Xaa is 2-amino-isobutyric acid; MOD_RES (21)..(21): Cys-PEG; MOD_RES (21)..(21): C-terminal amidation)
reduction of total blood loss compared to vehicle ([1]; 0.1 mg/kg i.v., 60 minutes): ~60% | mean blood loss ([1]; 0.1 mg/kg i.v., 60 minutes total): 34.7 µL | mean blood loss [1, 14]: 16.0 µL | reduction of blood loss compared to vehicle [1, 14]: about 50% | mean blood loss [1, 15]: 18.7 µL | reduction of blood loss compared to vehicle [1, 15]: about 64% | mean blood loss ([1]; 1.0 mg/kg i.v., entire 60 minutes): 22.8 µL | mean blood loss ([1]; 1.0 mg/kg i.v., first 30 minutes): 12.2 µL | mean blood loss ([1]; 1.0 mg/kg i.v., second 30 minute period): 10.6 µL | reduction of blood loss compared to vehicle ([1]; 10 mg/kg subcutaneous, 60 minutes): approximately 58% | coagulation parameters [2]: restored prolonged coagulation parameters in Hem A blood | effect on median total blood loss [3]: did not lead to a significant reduction in median total blood loss | HL_λ_z [h] (intravenous) ([4]; 1 mg/kg peptide content, intravenous): 19.8 h | Bioavailability [%] (s.c.) ([4]; 1 mg/kg peptide content, s.c. AUC vs i.v. AUC): 73.3% | protective effect on joint bleeding (summary bleeding score) [5]: significantly greater than the effect of 10 IU/kg ADVATE, but less than 100 IU/kg ADVATE | fl-TFPI interaction with LRP in presence of peptide [6]: slight decrease in fl-TFPI LRP interaction | fl-TFPI interaction with ASGPR in presence of peptide [7]: diminished the ASGPR-fl-TFPI interaction | percentage of initial amount of peptide remaining in plasma [8]: ≥ 60% | Human Plasma Stability, 24 hour (%) [9]: 67.3% | effect on median total blood loss [10]: did not reduce median total blood loss over that observed in buffer-treated animals

CC(=O)N[C@@H](Cc1ccccc1)C(=O)N[C@@H](CCC(N)=O)C(=O)N[C@@H](CO)C(=O)N[C@@H](CCCCN)C(=O)NCC(=O)N[C@@H](CC(N)=O)C(=O)N[C@H](C(=O)N[C@@H](Cc1ccccc1)C(=O)N[C@H](C(=O)N[C@@H](CC(=O)O)C(=O)NCC(=O)N[C@@H](Cc1ccc(O)cc1)C(=O)N[C@@H](Cc1ccccc1)C(=O)N[C@@H](CCC(=O)O)C(=O)N[C@@H](CCCNC(=N)N)C(=O)N[C@@H](CC(C)C)C(=O)NC(C)(C)C(=O)N[C@@H](C)C(=O)N[C@@H](CCCCN)C(=O)N[C@@H](CC(C)C)C(N)=O)C(C)C)C(C)C [JBT0740]
plasma concentration after intravenous administration ([4]; 10 mg/kg i.v., FIG. 31): rapidly cleared from the plasma | solubility [11]: 920 µg/mL (≈ 392 µM)

Ac-FQSKNNVFVFGYFERLRAKL-NH2 [JBT0297]
Kd [12]: 29 nM | EC50 [13]: 600 nM
